Measured values from article PMC6792352, “Limited Chemical Structural Diversity Found to Modulate Thyroid Hormone Receptor in the Tox21 Chemical Library” (Environmental Health Perspectives, 2019).
Counter-ions that a name gives are not always drawn.

Assay: in vitro
Details: rat, gh3-tre-luc cells, AC50 (uM) modified / 1000
For O=C(O)c1ccccc1Cl [2-Chlorobenzoic acid], the CC50 at 24 h was over 90 µM. N#CCC(=O)O [Cyanoacetic acid] gave a CC50 at 24 h of over 90 µM. CNC(=O)Oc1ccc2c(c1)[C@]1(C)CCN(C)[C@@H]1N2C [Physostigmine] showed a CC50 at 24 h of over 90 µM. For O=C1c2ccccc2C(=O)c2cc(Cl)ccc21 [2-Chloroanthraquinone], the CC50 at 24 h was over 5 µM. CNCc1ccc(NC(=O)c2c[nH]c3c2C(=O)CCC3)cc1 [CP-409092] gave a CC50 at 24 h of over 90 µM. Compound COc1ccc2c(c1)c1c3n2CCN(C)C3=NCC1 [Metralindole] has a CC50 at 24 h of over 50 µM. For c1cnccn1 [Pyrazine], the CC50 at 24 h was over 90 µM. Work on COC(=O)N/N=C/c1c[n+]([O-])c2ccccc2[n+]1[O-] [Carbadox] yielded a CC50 at 24 h of over 50 µM. CNc1ncnc2nc[nH]c12 [(N-6)-Methyladenine] showed a CC50 at 24 h of over 90 µM. CN1CCN(c2cc3c(nn2)Oc2ccccc2N3C)CC1 [Pipofezine] gave a CC50 at 24 h of over 50 µM. For COc1ccc(CCN(C)CCCC(C#N)(c2cc(OC)c(OC)c(OC)c2)C(C)C)cc1OC (stereo not drawn) [Gallopamil hydrochloride], the CC50 at 24 h was 21 µM. With O=C(O)CCSCCC(=O)O [3,3'-Thiodipropionic acid] the CC50 at 24 h was over 90 µM. Compound CCN(CC)c1ccc(N)cc1 [N,N-Diethylbenzene-1,4-diamine] has a CC50 at 24 h of 64.7 µM. With CC(C)[C@@H](C)/C=C/[C@@H](C)[C@H]1CC[C@H]2/C(=C/C=C3\C[C@@H](O)CC[C@@H]3C)CCC[C@]12C [Dihydrotachysterol] the CC50 at 24 h was over 50 µM. For Cc1cccc(N)c1C [2,3-Dimethylaniline], the CC50 at 24 h was over 90 µM. Compound CCOC(=O)c1ccc(OC(=O)CCCCCNC(=N)N)cc1 [Gabexate mesilate] has a CC50 at 24 h of over 20 µM. In the case of O=C(O)c1ccc([N+](=O)[O-])cc1 [4-Nitrobenzoic acid], the CC50 at 24 h is reported as over 90 µM. Work on O=C1c2c(O)cccc2[C@H]([C@@H]2O[C@H](CO)[C@@H](O)[C@H](O)[C@H]2O)c2cc(CO)cc(O)c21 [Aloin A] yielded a CC50 at 24 h of over 50 µM. c1ccc2c(c1)CCCC2 [Tetralin] gave a CC50 at 24 h of over 90 µM. Work on CCOc1cccc(C2(N3CCN(c4ccccc4)CC3)CCC(C)CC2)c1 (stereo not drawn) [CP-422935] yielded a CC50 at 24 h of over 90 µM. Compound CN1[C@@H]2CC[C@H]1C[C@@H](OC(c1ccccc1)c1ccc(Cl)cc1)C2 (stereo partly drawn) [Clobenztropine] has a CC50 at 24 h of 5.13 µM. C[Si]1(C)O[Si](C)(C)O[Si](C)(C)O[Si](C)(C)O1 [Octamethylcyclotetrasiloxane] showed a CC50 at 24 h of over 90 µM. In the case of CCn1ccnc1CC1COc2ccccc2O1 (stereo not drawn) [Imiloxan], the CC50 at 24 h is reported as over 50 µM. For NC(=O)C[C@@H](N)C(=O)O [D-Asparagine hydrate], the CC50 at 24 h was over 50 µM. Work on O=C(O)c1ccccc1Nc1cccc(C(F)(F)F)c1 [Flufenamic acid] yielded a CC50 at 24 h of over 50 µM. Compound CCCCC(CC)CNCC(CC)CCCC (stereo not drawn) [Bis-2-ethylhexylamine] has a CC50 at 24 h of over 90 µM. For C/N=C(\NC)NCc1ccccc1 [Bethanidine sulfate (2:1)], the CC50 at 24 h was over 50 µM. Work on CC(C)(C)CC(C)(C)c1cc(Cc2cc(C(C)(C)CC(C)(C)C)cc(-n3nc4ccccc4n3)c2O)c(O)c(-n2nc3ccccc3n2)c1 [Bisoctrizole] yielded a CC50 at 24 h of over 50 µM. With C#CCOc1ccc2c(C)cc(=O)oc2c1 [Giparmen] the CC50 at 24 h was over 50 µM. With CCCCCCCC/C=C\CCCCCCCC(=O)OC[C@@H](O)[C@H]1OC[C@H](O)[C@H]1O [Sorbitan, mono-(9Z)-9-octadecenoate] the CC50 at 24 h was over 50 µM. For Nc1ccc(N=Nc2ccccc2)cc1 [4-Aminoazobenzene], the CC50 at 24 h was over 90 µM. For CCCc1c(OCCCCc2nnn[nH]2)ccc(C(C)=O)c1O [Tomelukast], the CC50 at 24 h was over 50 µM. CCC(C)OC(=O)c1ccc(O)cc1 (stereo not drawn) [sec-Butylparaben] showed a CC50 at 24 h of over 90 µM. NC(=O)c1cnccn1 [Pyrazinamide] showed a CC50 at 24 h of over 90 µM. With OCc1cc(C(O)CNCCCCCCOCCCCc2ccccc2)ccc1O (stereo not drawn) [Salmeterol] the CC50 at 24 h was 10.6 µM. COc1cc2c(cc1OC)-c1c/c(=N\c3c(C)cc(C)cc3C)n(C)c(=O)n1CC2 [Trequinsin hydrochloride] gave a CC50 at 24 h of 20.3 µM. C=CC(C)(O)CCCC(C)CCCC(C)CCCC(C)C (stereo not drawn) [Isophytol] showed a CC50 at 24 h of over 90 µM. CCOC(C)=O [Ethyl acetate] showed a CC50 at 24 h of over 90 µM. In the case of CC(=O)N1C[C@H](O)C[C@H]1C(=O)O [Oxaceprol], the CC50 at 24 h is reported as over 50 µM. In the case of O=c1[nH]c2ccccc2o1 [2-Benzoxazolinone], the CC50 at 24 h is reported as over 90 µM. In the case of Clc1cc(Cl)c(Cl)c(Cl)c1Cl [Pentachlorobenzene], the CC50 at 24 h is reported as over 90 µM. In the case of COc1ccc(C(CN(C)C)C2(O)CCCCC2)cc1 (stereo not drawn) [Venlafaxine hydrochloride], the CC50 at 24 h is reported as over 90 µM.
